How the values were obtained:
[1] = tested on: Salmonella typhimurium TA100; assay: AMES test, mutagenic evaluation in Salmonella typhimurium TA100 strain with/without metabolic activation (S9); assay type: cell-based
Method in brief: (§1)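 Preincubation Ames assay, 20–30 min at 37 °C with compound in DMSO, in 0.2 M phosphate buffer pH 7.4 or, with activation, Aroclor 1254-induced Sprague Dawley rat liver S9 mix. Plated in histidine/biotin-trace top agar, revertants counted after 48 h at 37 °C, triplicate. Mutagenicity ratio versus negative control, ≥2 scored positive; dose-response by ANOVA/Bernstein regression.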

K562 cells = assay: Cell viability in K562 culture (trypan blue); assay type: cell-based, human; conditions: K562 assays with and without hemin, at the concentrations used
Description: The human leukemia cell line K562 ATCC (American Type Culture Collection), Philadelphia, Pa., USA was used. The cells were cultured in DMEM median (Dulbecco's Modified Eagle Medium, Invitrogen, USA) containing 10% of fetal bovine serum and glutamine. The cells were maintained at 37° C. under a 5% CO2 atmosphere. For the experiments, the cells were incubated at a density of 1×10^5 cells/mL. In order to carry out the culture with hemin (30 uM), it was added 72 hours before the beginning of the experiment with the desired compound.
The 0-hour time consisted in removing non-treated K562 cells. From this point, the respective compounds were added at the desired concentrations (5, 30, 60 and 100 uM), the cells were then maintained for […] under culture, without a new addition of any compound or substitution of the culture medium. Cell collections were performed at the following times: 0, 24, 48, 72 and 96 hours. The morphology of the cells was analyzed at these points through cytospin slides stained with Leishman and the cell viability was performed by staining with trypan blue in a Neuberger's chamber.

[2] = tested on: Salmonella typhimurium TA102; assay: AMES test, mutagenic evaluation in Salmonella typhimurium TA102 strain with/without metabolic activation (S9); assay type: cell-based
Method in brief: as §1

O=C1c2ccccc2C(=O)N1c1ccc(CCO[N+](=O)[O-])cc1 [Compound IE, 2-[4-(1,3-dioxo-1,3-dihydro-2H-isoindol-2-yl)phenyl]ethyl nitrate]
mutagenicity ratio (MR) ([1]; TA 100, +S9, 0.12 μmol/plate): 2.8 | number of revertants per plate ([1]; TA 100, +S9, 0.12 μmol/plate): 363 ± 25.2 revertants/plate | mutagenicity ratio (MR) ([1]; TA 100, +S9, 0.25 μmol/plate): 3.7 | number of revertants per plate ([1]; TA 100, +S9, 0.25 μmol/plate): 478.7 ± 4.22 revertants/plate | mutagenicity ratio (MR) ([1]; TA 100, +S9, 0.5 μmol/plate): 4.86 | number of revertants per plate ([1]; TA 100, +S9, 0.5 μmol/plate): 628 ± 40.8 revertants/plate | mutagenicity ratio (MR) ([1]; TA 100, +S9, 1 μmol/plate): 5.72 | number of revertants per plate ([1]; TA 100, +S9, 1 μmol/plate): 739 ± 25.4 revertants/plate | mutagenicity ratio (MR) ([1]; TA 100, +S9, 2 μmol/plate): 5.79 | number of revertants per plate ([1]; TA 100, +S9, 2 μmol/plate): 750 ± 13.6 revertants/plate | mutagenicity ratio (MR) ([1]; TA 100, −S9, 0.12 μmol/plate): 1.04 | number of revertants per plate ([1]; TA 100, −S9, 0.12 μmol/plate): 143.3 ± 5 revertants/plate | mutagenicity ratio (MR) ([1]; TA 100, −S9, 0.25 μmol/plate): 0.99 | number of revertants per plate ([1]; TA 100, −S9, 0.25 μmol/plate): 135.3 ± 12 revertants/plate | mutagenicity ratio (MR) ([1]; TA 100, −S9, 0.5 μmol/plate): 0.99 | number of revertants per plate ([1]; TA 100, −S9, 0.5 μmol/plate): 136.3 ± 13 revertants/plate | mutagenicity ratio (MR) ([1]; TA 100, −S9, 1 μmol/plate): 0.89 | number of revertants per plate ([1]; TA 100, −S9, 1 μmol/plate): 121.5 ± 14 revertants/plate | mutagenicity ratio (MR) ([1]; TA 100, −S9, 2 μmol/plate): 1.30 | number of revertants per plate ([1]; TA 100, −S9, 2 μmol/plate): 177 ± 23.6 revertants/plate | cell viability (K562 cells): higher than 90% | mutagenicity ratio (MR) ([2]; TA 102, +S9, 0.12 μmol/plate): 0.9 | number of revertants per plate ([2]; TA 102, +S9, 0.12 μmol/plate): 335.3 ± 11 revertants/plate | mutagenicity ratio (MR) ([2]; TA 102, +S9, 0.25 μmol/plate): 0.8 | number of revertants per plate ([2]; TA 102, +S9, 0.25 μmol/plate): 295.3 ± 28 revertants/plate | mutagenicity ratio (MR) ([2]; TA 102, +S9, 0.5 μmol/plate): 1.09 | number of revertants per plate ([2]; TA 102, +S9, 0.5 μmol/plate): 406 ± 14.1 revertants/plate | mutagenicity ratio (MR) ([2]; TA 102, +S9, 1 μmol/plate): 1.25 | number of revertants per plate ([2]; TA 102, +S9, 1 μmol/plate): 465 ± 10.6 revertants/plate | mutagenicity ratio (MR) ([2]; TA 102, +S9, 2 μmol/plate): 1.2 | number of revertants per plate ([2]; TA 102, +S9, 2 μmol/plate): 447 ± 19.8 revertants/plate | mutagenicity ratio (MR) ([2]; TA 102, −S9, 0.12 μmol/plate): 1.29 | number of revertants per plate ([2]; TA 102, −S9, 0.12 μmol/plate): 256 ± 6.9 revertants/plate | mutagenicity ratio (MR) ([2]; TA 102, −S9, 0.25 μmol/plate): 1.32 | number of revertants per plate ([2]; TA 102, −S9, 0.25 μmol/plate): 262 ± 19.1 revertants/plate | mutagenicity ratio (MR) ([2]; TA 102, −S9, 0.5 μmol/plate): 1.35 | number of revertants per plate ([2]; TA 102, −S9, 0.5 μmol/plate): 266.7 ± 18 revertants/plate | mutagenicity ratio (MR) ([2]; TA 102, −S9, 1 μmol/plate): 1.34 | number of revertants per plate ([2]; TA 102, −S9, 1 μmol/plate): 265.7 ± 10 revertants/plate | mutagenicity ratio (MR) ([2]; TA 102, −S9, 2 μmol/plate): 1.02 | number of revertants per plate ([2]; TA 102, −S9, 2 μmol/plate): 201 ± 4.7 revertants/plate

— patent US8314255B2, “Use of phthalimide and/or sulphonamide derivatives in the treatment of diseases which require reducing the TNF- α levels and an exogenous source of nitric oxide, phthalimide derivatives, sulphonamide derivatives, and a method for obtaining a sulphonamide derivative” (priority 2007, dated 2012)
